The test system of series [1] is C. albicans CBS 562. The experiment in a line: Sorbitol assay (cell wall mechanism), microdilution. Type of series: cell-based, Candida albicans. To be noted: Candida albicans, CBS562, C. albicans CBS 562. How it is done:
(1) Sorbitol Assay. The microdilution technique was performed in the presence of sorbitol (D-sorbitol, anhydrous) (INLAB laboratory), to determine the mode of action of the compounds on the cell wall of C. albicans CBS 562. For this test, the inoculum was prepared with sorbitol to a final concentration of 0.8 M. The plates were incubated at 35 ± 2°C, and readings were taken 24 h and 48 h after incubation. Caspofungin was used as positive control at an initial concentration of 5 mg/mL [68–70].
Background: Broth dilution looks for growth in wells or tubes with falling amounts of substance.

Series [2] relates to Candida strains (Candida albicans, C. tropicalis, and C. krusei). The experiment in a line: Antifungal evaluation (MIC/MFC), statements for all Candida strains. Type of series: cell-based, Candida spp. To be noted: Candida strains; read-out: bioactivity category by MIC. How it is done: The antifungal activity (Table 2) of the ten amides was assessed via the minimum inhibitory concentration (MIC) which was determined using the microdilution methods against three species of Candida strains (Candida albicans, C. tropicalis, and C. krusei).
(§1) Antifungal activity evaluations were performed using references strains of Candida spp., obtained from the Centraalbureau voor Schimmelcultures (CBS, Ultrecht, Netherlands): Candida albicans CBS 562, Candida tropicalis CBS 94, and Candida krusei CBS 573. Nystatin, Tween 80%, DMSO, caspofungin diacetate, and ergosterol were obtained from Sigma-Aldrich® (St. Louis, MO, EUA) and sorbitol (D-sorbitol anhydrous) from INLAB® (São Paulo, Brazil). All assays were performed in triplicate in three independent experiments. The culture medium used for maintenance of the microorganisms was Agar Sabouraud Dextrose (ASD). Inoculants were adjusted to a final concentration of 2.5 × 10^3 CFU/mL (Clinical and Laboratory Standards Institute, 2002). […]
(§2) MIC was determined by the microdilution technique, as previously described by the adapted Clinical and Laboratory Standards Institute (CLSI, 2002) method. The compounds were subjected to the microdilution technique in 96-well plates, with U bottom. The samples were dissolved with DMSO and sterile distilled water (up to 1.0 mL). Through serial dilutions, concentrations of the evaluated compounds ranging from 1000 μg/mL to 7.8 μg/mL. The culture sterility medium, the evaluated substances, and the microbial growth were carried out in parallel. The plates were closed and subjected to a temperature of 35 ± 2°C for 24 h. 1% TTC (2,3,5-triphenyl tetrazolium chloride, Sigma-Aldrich®, St. Louis, MO, EUA) was added to each well to confirm the presence of viable microorganisms. MIC was defined as the lowest concentration of the test substance that inhibits visible microbial growth.
The minimum fungicide concentration (MFC) of the compounds was obtained after the interpretation of the MIC. Three (3) aliquots of 30 μL of supernatant were removed from the wells (where complete inhibition of fungal growth was analyzed) and placed in Petri dishes containing 15 mL of agar Sabouraud dextrose. The plates were incubated at 35 ± 2°C for 24 h for visual counting of colony forming units.

In series [3] the test system is MRC5. As to the kind of experiment: Cytotoxicity assay, alamar blue test (healthy cell line). The class given is cell-based, human. To be noted: value (95% confidence interval). How it is done: (§3) HepG2 cells (human hepatocellular carcinoma), HCT116 (human colon carcinoma), HL-60 (human promyelocytic leukemia), and MRC5 (human lung fibroblast) obtained from the ATCC (Manassas, VA, USA) were used. Cells were cultured in cell culture bottles (75 cm 3, 250 mL volume), and media used were RPMI 1640 and supplemented with 10% fetal bovine serum. Cells were maintained in incubators with 5% CO2 atmosphere at 37°C. Cellular growth was monitored daily with the use of an inversion microscope. The medium was changed whenever cell growth reached the necessary confluence for nutrient renewal. For the maintenance of adhered cells, trypsin (0.25%) was used for the cells to detach from the walls of the bottles.
(§4) To assess the cytotoxicity of the substances, the alamar blue test was performed after 72 h of exposure with the test substances. Alamar blue, known as resazurin [62], is a fluorescent/colorimetric indicator with redox properties. The reduction in alamar blue reflects cell proliferation. This was initially used to indicate cell growth and/or viability in monitoring lymphocyte proliferation and currently has several applications. Initially, cells were plated in 96-well plates (100 μL/well of a solution of 0.3 × 10^6 cells/mL for cells in suspension and 0.7 × 10^5 cells/mL for adhered cells). After 24 h of incubation, the test substances dissolved in DMSO were added to each well and incubated for 72 h. Doxorubicin was used as a positive control. The negative control received the same amount of DMSO. Four hours before the end of the incubation period, 20 μL of the stock solution (0.312 mg/mL) of alamar blue (resazurin) was added to each well. Absorbances were measured at wavelengths of 570 nm (reduced) and 600 nm (oxidized) using a plate reader.

In series [4] the test system is HCT116. The experiment in a line: Cytotoxicity assay, alamar blue test. Type of series: cell-based, human. To be noted: value (95% confidence interval). The method, then:
as §3, §4
(In general: Resazurin is reduced to fluorescent resorufin, in cell work by metabolically active cells.)

The test system of series [5] is HepG2 cells. The experiment in a line: Cytotoxicity assay, alamar blue test. Type of series: cell-based, human. The following applies: value (95% confidence interval). The method, then:
as §3, §4

Series [6] deals with HL-60. The experiment in a line: Cytotoxicity assay, alamar blue test. To be noted: value (95% confidence interval); for IC50: read-out: IC50 HL60. Type of series: cell-based, human. How it is done:
as §3, §4

Series [7] has as its system C. albicans. As to the kind of experiment: Ergosterol test (plasma membrane mechanism), microdilution. The following applies: Candida albicans. The class given is cell-based, Candida albicans. The method, then:
(2) Ergosterol Test. The test of the compounds was performed using the microdilution technique, as previously described, in the presence of exogenous ergosterol at 400 μg/mL. Nystatin was used as positive control. The plates were incubated at 35 ± 2°C, and readings were taken at 24 and 48 h.

Series [8] relates to Candida tropicalis CBS 94. As to the kind of experiment: MIC by broth microdilution. The class given is cell-based. To be noted: CBS94, 24 h, N.A.: no activity, read-out: MIC C. tropicalis CBS 94. How it is done:
as §1, §2

Series [9] has as its system Candida krusei CBS 573. As to the kind of experiment: MIC by broth microdilution. The following applies: Pichia kudriavzevii, CBS573, 24 h, N.A.: no activity, read-out: MIC C. krusei CBS 573. The class given is cell-based. The method, then:
as §1, §2

The subject of series [10] is Candida albicans CBS 562. As to the kind of experiment: MIC by broth microdilution. Type of series: cell-based. The following applies: N.A.: no activity; for MIC C. albicans CBS 562: 24 h. How it is done:
as §1, §2

For series [11], the system named is Candida tropicalis CBS 94. The experiment in a line: Minimum fungicide concentration (MFC). Type of series: cell-based. To be noted: for MIC/MFC reason C. tropicalis CBS 94: ≥ 4 fungistatic or <4 fungicide. How it is done:
as §1
(§5) The minimum fungicide concentration (MFC) of the compounds was obtained after the interpretation of the MIC. Three (3) aliquots of 30 μL of supernatant were removed from the wells (where complete inhibition of fungal growth was analyzed) and placed in Petri dishes containing 15 mL of agar Sabouraud dextrose. The plates were incubated at 35 ± 2°C for 24 h for visual counting of colony forming units. To determine whether the compounds had fungistatic (MFC/MIC ≥ 4) or fungicidal (MFC/MIC < 4) activity, the MFC/MIC ratio was calculated.

Series [12] has as its system Candida krusei CBS 573. As to the kind of experiment: Minimum fungicide concentration (MFC). To be noted: for MIC/MFC reason C. krusei CBS 573: ≥ 4 fungistatic or <4 fungicide. Type of series: cell-based. The method, then:
as §1, §5

Series [13] relates to Candida albicans CBS 562. As to the kind of experiment: Minimum fungicide concentration (MFC). The class given is cell-based. How it is done:
as §1, §5

≈ marks a conversion by molar mass, not a printed value. Where “and” joins values, the source holds several entries; their conditions need not be identical. Identical values can stand only once. Like-named read-outs stand apart in the source and are kept apart here. Bounds are passed on as bounds.

Take `COc1cc(C=CC(=O)NCc2ccc3c(c2)OCO3)ccc1O` [Compound 11]: the melting point – broadly, the temperature of the solid-liquid transition – was in the range of 172 to 175 °C. In addition, the MIC (commonly the least concentration at which growth counts as inhibited) in series [1] (absence of sorbitol, read-out: MIC Without sorbitol) was determined as 15.6 µg/mL (≈ 47.7 µM). The MIC in series [1] (sorbitol 0.8 M, read-out: MIC With sorbitol) is greater than 1000 µg/mL. Further, in series [2], the minimal inhibitory concentration (MIC) lay in the range of 26 to 125 µg/mL (≈ 79.4 to 382 µM). Further, the half-inhibitory concentration (IC50) (as a rule, the concentration that gives 50% inhibition) in series [3] (Homo sapiens, MRC5, 72 h) is > 25 µg/mL and > 76.4 µM. Besides, the IC50 in series [4] (Homo sapiens, HCT-116, 72 h) was > 25 µg/mL and > 76.4 µM. The concentration for half-maximal inhibition (IC50) in series [5] (Homo sapiens, HepG2, 72 h) was > 25 µg/mL and > 76.4 µM. The half-maximal inhibitory concentration (IC50) in series [6] (Homo sapiens, HL-60, 72 h) is 18.8 µg/mL and 57.4 µM. The MIC in series [7] (absence of ergosterol, read-out: MIC Without ergosterol) is 62.2 µg/mL (≈ 190 µM). Also, in series [7] (exogenous ergosterol at 400 μg/mL, read-out: MIC With ergosterol), the MIC is 62.2 µg/mL (≈ 190 µM). Moreover, the MIC in [8] amounted to 500 µg/mL (≈ 1530 µM). Also, the MIC in series [9] was 62.5 µg/mL (≈ 191 µM). In addition, the MIC in series [10] (Candida albicans, CBS562, 24 h, read-out: MIC C. albicans CBS 562) was 62.5 µg/mL and 190 µM. Further, in series [11] (Candida tropicalis, CBS94, N.A.: no activity, read-out: MFC C. tropicalis CBS 94), the minimum fungicidal concentration (MFC) (as a rule, the smallest concentration meeting the test's criterion for killing the fungus) is 500 µg/mL and 1520 µM. The “MIC/MFC reason C. tropicalis CBS 94” value in series [11] is recorded as 1. The minimum fungicidal concentration (MFC) in series [12] (Pichia kudriavzevii, CBS573, N.A.: no activity, read-out: MFC C. krusei CBS 573) is 62.5 µg/mL and 190 µM. The “MIC/MFC reason C. krusei CBS 573” value in series [12] is 1. The minimum fungicidal concentration (MFC) in series [13] (Candida albicans, CBS562, N.A.: no activity, read-out: MFC C. albicans CBS 562) was 125 µg/mL and 380 µM. Besides, in [13] (≥ 4 fungistatic or <4 fungicide), the “MIC/MFC reason C. albicans CBS 562” value was 2.

As to “(E)-3-(3-hydroxy-4-methoxyphenyl)-N-(4-methylbenzyl)acrylamide [Compound 7]”, in series [3] (72 h), the IC50 is greater than 84.1 µM and the “IC50 MRC5” value was greater than 25 µg/mL. Further, in series [4] (72 h), the half-maximal inhibitory concentration (IC50) was greater than 84.1 µM and the “IC50 HCT116” value was greater than 25 µg/mL. In series [5] (72 h), the 50% inhibitory concentration (IC50) is greater than 84.1 µM and the “IC50 HEPG2” value is greater than 25 µg/mL. Also, the half-inhibitory concentration (IC50) in series [6] (72 h) stood at 53.1 µM. Also, the “MIC C. albicans CBS 562” value in [10] is “inactive”. The “MIC/MFC reason C. tropicalis CBS 94” value in series [11] was determined as 1. In series [12], the “MIC/MFC reason C. krusei CBS 573” value came out at 1.

Consider “(E)-N-(4-chlorobenzyl)-3-(3-hydroxy-4-methoxyphenyl)acrylamide [Compound 9]”, for which, in series [3] (72 h), the IC50 was greater than 78.7 µM and the “IC50 MRC5” value is greater than 25 µg/mL. Further, in series [4] (72 h), the 50% inhibitory concentration (IC50) was greater than 78.7 µM and the “IC50 HCT116” value is greater than 25 µg/mL. Besides, in [5] (72 h), the IC50 is greater than 78.7 µM and the “IC50 HEPG2” value was greater than 25 µg/mL. Further, in series [6] (72 h), the “IC50 HL60” value was 15.58 (9.26–26.20) μg/mL and the half-inhibitory concentration (IC50) turned out to be 49 µM. In series [10], the “MIC C. albicans CBS 562” value is “inactivity”. In series [11], the “MIC/MFC reason C. tropicalis CBS 94” value is on record as 1. For the same molecule, in [12], the “MIC/MFC reason C. krusei CBS 573” value was determined as 1.
